Experimental data taken from ChEMBL document CHEMBL1201862, “PubChem BioAssay data set” (2004).
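1) Cells in 96-well plates. 2) Compound, 48 h, 5 concentrations. 3) Linear interpolation between surrounding doses. 4) Unreached endpoint = highest concentration. The concentration for 50% growth inhibition is given as GI50.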 Calls of active or inactive are those of the source. No stated cut-off is given here; in the data, active = GI50 up to about 1.1 µM and inactive = higher.

Key:
Assay in all cases: DTP human tumour cell line panel, 48 h
[1] = system: HOP-62
[2] = system: U-251
[3] = system: SN12C
[4] = system: SK-OV-3
[5] = system: A549
[6] = system: PC-3
[7] = system: OVCAR-3
[8] = system: RXF 393
[9] = system: HOP-92
[10] = system: MDA-MB-435
[11] = system: NCI-H522
[12] = system: RPMI-8226
[13] = system: HL-60
[14] = system: KM12
[15] = system: MDA-N
[16] = system: SF-539
[17] = system: NCI-H460
[18] = system: M14
[19] = system: UO-31
[20] = system: DMS-273

SMILES	GI50 [1]	GI50 [2]	GI50 [3]	GI50 [4]	GI50 [5]	GI50 [6]	GI50 [7]	GI50 [8]	GI50 [9]	GI50 [10]	GI50 [11]	GI50 [12]	GI50 [13]	GI50 [14]	GI50 [15]	GI50 [16]	GI50 [17]	GI50 [18]	GI50 [19]	GI50 [20]
[N-]=[N+]=NCC(=O)c1cnc(O)nc1O	> 100 µM (inactive)	> 100 µM (inactive)	> 100 µM (inactive)	> 100 µM (inactive)	> 100 µM (inactive)	> 100 µM (inactive)	> 100 µM (inactive)	> 100 µM (inactive)	> 100 µM (inactive)	> 100 µM (inactive)	> 100 µM (inactive)	> 100 µM (inactive)	> 100 µM (inactive)	> 100 µM (inactive)	> 100 µM (inactive)	> 100 µM (inactive)	> 100 µM (inactive)	> 100 µM (inactive)	> 100 µM (inactive)	–
Cc1cc2c(cc1C)[n+]([O-])c(C(F)(F)F)c(C(=O)c1ccccc1)[n+]2[O-]	0.299 µM (active)	2.67 µM (inactive)	2.74 µM (inactive)	4 µM (inactive)	1.42 µM (inactive)	2.09 µM (inactive)	0.227 µM (active)	3.13 µM (inactive)	0.167 µM (active)	2.69 µM (inactive)	2.99 µM (inactive)	1.24 µM (inactive)	1.69 µM (inactive)	1.85 µM (inactive)	3.35 µM (inactive)	5.07 µM (inactive)	1.26 µM (inactive)	3.73 µM (inactive)	0.484 µM (active)	–
O=C1/C(=C/c2ccccc2)CCc2ccc(Cl)nc21	19.7 µM (inactive)	3.11 µM (inactive)	6.03 µM (inactive)	31.6 µM (inactive)	16.6 µM (inactive)	11.7 µM (inactive)	21.8 µM (inactive)	8.2 µM (inactive)	15.8 µM (inactive)	6.5 µM (inactive)	2.76 µM (inactive)	2.84 µM (inactive)	0.0168 µM (active)	2.59 µM (inactive)	4 µM (inactive)	3.61 µM (inactive)	18.2 µM (inactive)	8.04 µM (inactive)	7.64 µM (inactive)	–
CCCCCCCCCCCCCCCCCCOCC(O)COP(=O)(O)OCC1OC(n2cc(F)c(=O)[nH]c2=O)CC1O (centres undefined)	0.15 µM (active)	1.75 µM (inactive)	5.81 µM (inactive)	12.8 µM (inactive)	0.51 µM (active)	3.07 µM (inactive)	13.7 µM (inactive)	11.9 µM (inactive)	4.02 µM (inactive)	17.7 µM (inactive)	11.9 µM (inactive)	2.17 µM (inactive)	6.56 µM (inactive)	14.5 µM (inactive)	13.4 µM (inactive)	0.0721 µM (active)	0.678 µM (active)	2.96 µM (inactive)	1.16 µM (inactive)	–
CCOC(=O)c1cnc2c(ccc3ncccc32)c1NCCCN(CC)CC	> 100 µM (inactive)	72.4 µM (inactive)	–	> 100 µM (inactive)	> 100 µM (inactive)	–	> 100 µM (inactive)	–	65.8 µM (inactive)	–	> 100 µM (inactive)	38.2 µM (inactive)	14.6 µM (inactive)	38.3 µM (inactive)	–	> 10 µM (inactive)	35.2 µM (inactive)	19.1 µM (inactive)	76.4 µM (inactive)	54.1 µM (inactive)
O=C1C2C3C4C1C1C2[C@H](OCc2ccccc2)C3C1[C@H]4OCc1ccccc1 (some centres undefined)	73.3 µM (inactive)	77.3 µM (inactive)	> 100 µM (inactive)	> 100 µM (inactive)	40.9 µM (inactive)	36.1 µM (inactive)	60.5 µM (inactive)	31.8 µM (inactive)	17 µM (inactive)	61.4 µM (inactive)	11.2 µM (inactive)	36.6 µM (inactive)	22.5 µM (inactive)	52.2 µM (inactive)	> 100 µM (inactive)	75.2 µM (inactive)	49.8 µM (inactive)	51.8 µM (inactive)	55.8 µM (inactive)	–
COc1ccc(C(OCC2OC(n3ccc(Oc4c(F)c(F)c(F)c(F)c4F)nc3=O)CC2OP(OCCC#N)N(C(C)C)C(C)C)(c2ccccc2)c2ccc(OC)cc2)cc1 (centres undefined)	> 100 µM (inactive)	> 100 µM (inactive)	> 100 µM (inactive)	> 100 µM (inactive)	> 100 µM (inactive)	> 100 µM (inactive)	> 100 µM (inactive)	> 100 µM (inactive)	> 100 µM (inactive)	> 100 µM (inactive)	> 100 µM (inactive)	> 100 µM (inactive)	> 100 µM (inactive)	> 100 µM (inactive)	> 100 µM (inactive)	> 100 µM (inactive)	> 100 µM (inactive)	> 100 µM (inactive)	> 100 µM (inactive)	–
